From patent publication US20160002204A1 (Board of Regents, The University of Texas System, priority 2014, published 2016)

Experiments:
[1] = molecular target: T1, GLS1 (purified recombinant human GAC) (Homo sapiens, UniProt O94925); experiment: GLS1 enzymatic activity assay (dual-coupled, Amplex UltraRed/resorufin); assay type: biochemical
T1 sequence (O94925 55-598 isoform O94925-3 limits assumed): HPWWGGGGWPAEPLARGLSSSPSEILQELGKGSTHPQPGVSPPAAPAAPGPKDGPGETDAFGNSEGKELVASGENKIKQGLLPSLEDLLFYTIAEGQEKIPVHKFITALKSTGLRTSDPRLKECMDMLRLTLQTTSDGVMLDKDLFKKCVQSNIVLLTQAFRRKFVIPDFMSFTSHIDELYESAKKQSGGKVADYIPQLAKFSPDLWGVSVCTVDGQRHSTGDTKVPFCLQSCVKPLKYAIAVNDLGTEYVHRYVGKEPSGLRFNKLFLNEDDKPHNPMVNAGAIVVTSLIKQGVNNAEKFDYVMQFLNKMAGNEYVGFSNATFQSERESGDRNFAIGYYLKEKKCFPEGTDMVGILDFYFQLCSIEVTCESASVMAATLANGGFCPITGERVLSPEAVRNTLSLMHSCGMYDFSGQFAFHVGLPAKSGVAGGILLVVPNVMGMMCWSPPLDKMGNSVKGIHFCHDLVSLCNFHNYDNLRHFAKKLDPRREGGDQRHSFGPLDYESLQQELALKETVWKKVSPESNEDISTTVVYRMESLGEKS
Procedure, shortened: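 Recombinant human GAC (2 nM) preincubated with 50 mM potassium phosphate, then inhibitor (10 min each, RT); 1 mM glutamine, pH 7.4 Hepes buffer, 1% DMSO. Glutamate coupled via glutamate oxidase/HRP to resorufin (Ex 530/Em 590), kinetic or 20-min endpoint; IC50 by four-parameter logistic fit.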

A549 cells = experiment: A549 proliferation (viability) assay, Cell Titer Fluor, 72 hours; assay type: cell-based; conditions: Homo sapiens
Procedure, shortened: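 Fluorescence read-out (Cell Titer Fluor, 30 min at 37 °C after reagent) after 72 h compound exposure of A549 cells; EC50 by four-parameter logistic curve fit. Cells: 1000/well, RPMI 1640 + 10% dialyzed FBS, 0.5% DMSO final.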

SMILES | IC50 [1] [nM] | EC50 (A549 cells) [nM]
COCC1CCN(CC(=O)Nc2ccn(CCC(F)Cn3cc(C(=O)NCc4cccc(OC(F)(F)F)c4)nn3)c(=O)c2)CC1 (stereo not shown) [Example 272, 1-[2-fluoro-4-(4-{2-[4-(methoxymethyl)piperidin-1-yl]acetamido}-2-oxo-1,2-dihydropyridin-1-yl)butyl]-N-{[3-(trifluoromethoxy)phenyl]methyl}-1H-1,2,3-triazole-4-carboxamide] | < 100 | 100 to 500
COC(=O)C1CCN(CC(=O)Nc2ccn(CCC(F)Cn3cc(C(=O)NCc4cccc(OC(F)(F)F)c4)nn3)c(=O)c2)CC1 (stereo not shown) [Example 273, methyl 1-{[(1-{3-fluoro-4-[4-({[3-(trifluoromethoxy)phenyl]methyl}carbamoyl)-1H-1,2,3-triazol-1-yl]butyl}-2-oxo-1,2-dihydropyridin-4-yl)carbamoyl]methyl}piperidine-4-carboxylate] | < 100 | 500 to 5000
O=C(CN1CCCC(F)(F)C1)Nc1ccn(CCC(F)Cn2cc(C(=O)NCc3cccc(OC(F)(F)F)c3)nn2)c(=O)c1 (stereo not shown) [Example 274, 1-(4-{4-[2-(3,3-difluoropiperidin-1-yl)acetamido]-2-oxo-1,2-dihydropyridin-1-yl}-2-fluorobutyl)-N-{[3-(trifluoromethoxy)phenyl]methyl}-1H-1,2,3-triazole-4-carboxamide] | < 100 | < 100
O=C(CN1CCCC(F)C1)Nc1ccn(CCC(F)Cn2cc(C(=O)NCc3cccc(OC(F)(F)F)c3)nn2)c(=O)c1 (stereo not shown) [Example 275, 1-(2-fluoro-4-{4-[2-(3-fluoropiperidin-1-yl)acetamido]-2-oxo-1,2-dihydropyridin-1-yl}butyl)-N-{[3-(trifluoromethoxy)phenyl]methyl}-1H-1,2,3-triazole-4-carboxamide] | < 100 | < 100
CC1(C)CN(CC(=O)Nc2ccn(CCC(F)Cn3cc(C(=O)NCc4cccc(OC(F)(F)F)c4)nn3)c(=O)c2)CCO1 (stereo not shown) [Example 276, 1-(4-{4-[2-(2,2-dimethylmorpholin-4-yl)acetamido]-2-oxo-1,2-dihydropyridin-1-yl}-2-fluorobutyl)-N-{[3-(trifluoromethoxy)phenyl]methyl}-1H-1,2,3-triazole-4-carboxamide] | < 100 | 100 to 500
CC(C)(C)OC(=O)N1CC(CC(=O)Nc2ccn(CCC(F)Cn3cc(C(=O)NCc4cccc(OC(F)(F)F)c4)nn3)c(=O)c2)C1 (stereo not shown) [Example 277, tert-butyl 3-{[(1-{3-fluoro-4-[4-({[3-(trifluoromethoxy)phenyl]methyl}carbamoyl)-1H-1,2,3-triazol-1-yl]butyl}-2-oxo-1,2-dihydropyridin-4-yl)carbamoyl]methyl}azetidine-1-carboxylate] | < 100 | 100 to 500
CC1CN(CC(=O)Nc2ccn(CCC(F)Cn3cc(C(=O)NCc4cccc(OC(F)(F)F)c4)nn3)c(=O)c2)CCO1 (stereo not shown) [Example 278, 1-(2-fluoro-4-{4-[2-(2-methylmorpholin-4-yl)acetamido]-2-oxo-1,2-dihydropyridin-1-yl}butyl)-N-{[3-(trifluoromethoxy)phenyl]methyl}-1H-1,2,3-triazole-4-carboxamide] | < 100 | 100 to 500
CS(=O)(=O)N1CCN(CC(=O)Nc2ccn(CCC(F)Cn3cc(C(=O)NCc4cccc(OC(F)(F)F)c4)nn3)c(=O)c2)CC1 (stereo not shown) [Example 279, 1-(2-fluoro-4-{4-[2-(4-methanesulfonylpiperazin-1-yl)acetamido]-2-oxo-1,2-dihydropyridin-1-yl}butyl)-N-{[3-(trifluoromethoxy)phenyl]methyl}-1H-1,2,3-triazole-4-carboxamide] | < 100 | > 5000
O=C(CC1CCNCC1)Nc1ccn(CCC(F)Cn2cc(C(=O)NCc3cccc(OC(F)(F)F)c3)nn2)c(=O)c1 (stereo not shown) [Example 280, 1-(2-fluoro-4-{2-oxo-4-[2-(piperidin-4-yl)acetamido]-1,2-dihydropyridin-1-yl}butyl)-N-{[3-(trifluoromethoxy)phenyl]methyl}-1H-1,2,3-triazole-4-carboxamide] | 100 to 500 | 500 to 5000
CCOC(=O)N1CCC(CC(=O)Nc2ccn(CCC(F)Cn3cc(C(=O)NCc4cccc(OC(F)(F)F)c4)nn3)c(=O)c2)CC1 (stereo not shown) [Example 281, ethyl 4-{[(1-{3-fluoro-4-[4-({[3-(trifluoromethoxy)phenyl]methyl}carbamoyl)-1H-1,2,3-triazol-1-yl]butyl}-2-oxo-1,2-dihydropyridin-4-yl)carbamoyl]methyl}piperidine-1-carboxylate] | < 100 | < 100
Nc1ccn(CCC(F)Cn2cc(C(=O)NCc3cccc(OC(F)(F)F)c3)nn2)c(=O)c1F (stereo not shown) [Example 282, 1-[4-(4-amino-3-fluoro-2-oxo-1,2-dihydropyridin-1-yl)-2-fluorobutyl]-N-{[3-(trifluoromethoxy)phenyl]methyl}-1H-1,2,3-triazole-4-carboxamide] | 500 to 5000 | > 5000
O=C(CN1CCCC(F)C1)Nc1ccn(CC(F)CCn2cc(C(=O)NCc3cccc(OC(F)(F)F)c3)nn2)c(=O)c1 (stereo not shown) [Example 283, 1-(3-fluoro-4-{4-[2-(3-fluoropiperidin-1-yl)acetamido]-2-oxo-1,2-dihydropyridin-1-yl}butyl)-N-{[3-(trifluoromethoxy)phenyl]methyl}-1H-1,2,3-triazole-4-carboxamide] | < 100 | < 100
CO[C@@H](C(=O)Nc1ccn(CCC(F)Cn2cc(C(=O)NCc3cccc(OC(F)(F)F)c3)nn2)c(=O)c1F)c1ccccc1 (stereo partly drawn) [Example 284, 1-(2-fluoro-4-{3-fluoro-4-[(2R)-2-methoxy-2-phenylacetamido]-2-oxo-1,2-dihydropyridin-1-yl}butyl)-N-{[3-(trifluoromethoxy)phenyl]methyl}-1H-1,2,3-triazole-4-carboxamide] | < 100 | < 100
CO[C@H](C(=O)Nc1ccn(CCC(F)Cn2cc(C(=O)NCc3cccc(OC(F)(F)F)c3)nn2)c(=O)c1F)c1ccccc1 (stereo partly drawn) [Example 285, 1-(2-fluoro-4-{3-fluoro-4-[(2S)-2-methoxy-2-phenylacetamido]-2-oxo-1,2-dihydropyridin-1-yl}butyl)-N-{[3-(trifluoromethoxy)phenyl]methyl}-1H-1,2,3-triazole-4-carboxamide] | < 100 | < 100
O=C(NCc1cccc(OC(F)(F)F)c1)c1cn(CC(F)CCn2ccc(NC(=O)[C@@H](O)c3ccccc3)c(F)c2=O)nn1 (stereo partly drawn) [Example 286, 1-(2-fluoro-4-{3-fluoro-4-[(2S)-2-hydroxy-2-phenylacetamido]-2-oxo-1,2-dihydropyridin-1-yl}butyl)-N-{[3-(trifluoromethoxy)phenyl]methyl}-1H-1,2,3-triazole-4-carboxamide] | < 100 | < 100
O=C(NCc1cccc(OC(F)(F)F)c1)c1cn(CC(F)CCn2ccc(NC(=O)[C@H](O)c3ccccc3)c(F)c2=O)nn1 (stereo partly drawn) [Example 287, 1-(2-fluoro-4-{3-fluoro-4-[(2R)-2-hydroxy-2-phenylacetamido]-2-oxo-1,2-dihydropyridin-1-yl}butyl)-N-{[3-(trifluoromethoxy)phenyl]methyl}-1H-1,2,3-triazole-4-carboxamide] | < 100 | < 100
O=C(CN1CCCCC1)Nc1ccn(CCC(F)Cn2cc(C(=O)NCc3cccc(OC(F)(F)F)c3)nn2)c(=O)c1F (stereo not shown) [Example 288, 1-(2-fluoro-4-{3-fluoro-2-oxo-4-[2-(piperidin-1-yl)acetamido]-1,2-dihydropyridin-1-yl}butyl)-N-{[3-(trifluoromethoxy)phenyl]methyl}-1H-1,2,3-triazole-4-carboxamide] | < 100 | < 100
CC(C)(C)OC(=O)N1CCC(CC(=O)Nc2ccn(CCC(F)Cn3cc(C(=O)NCc4cccc(OC(F)(F)F)c4)nn3)c(=O)c2F)CC1 (stereo not shown) [Example 289, tert-butyl 4-{[(3-fluoro-1-{3-fluoro-4-[4-({[3-(trifluoro-methoxy)phenyl]methyl}carbamoyl)-1H-1,2,3-triazol-1-yl]butyl}-2-oxo-1,2-dihydropyridin-4-yl)carbamoyl]methyl}piperidine-1-carboxylate] | < 100 | < 100
O=C(CN1CCC(F)(F)CC1)Nc1ccn(CCC(F)Cn2cc(C(=O)NCc3cccc(OC(F)(F)F)c3)nn2)c(=O)c1F (stereo not shown) [Example 290, 1-(4-{4-[2-(4,4-difluoropiperidin-1-yl)acetamido]-3-fluoro-2-oxo-1,2-dihydropyridin-1-yl}-2-fluorobutyl)-N-{[3-(trifluoromethoxy)phenyl]methyl}-1H-1,2,3-triazole-4-carboxamide] | < 100 | < 100
O=C(CN1CCCC(F)C1)Nc1ccn(CCC(F)Cn2cc(C(=O)NCc3cccc(OC(F)(F)F)c3)nn2)c(=O)c1F (stereo not shown) [Example 291, 1-(2-fluoro-4-{3-fluoro-4-[2-(3-fluoropiperidin-1-yl)acetamido]-2-oxo-1,2-dihydropyridin-1-yl}butyl)-N-{[3-(trifluoromethoxy)phenyl]methyl}-1H-1,2,3-triazole-4-carboxamide] | < 100 | < 100
